These results are taken from ChEMBL document CHEMBL3739374, “Synthesis and evaluation of anticancer activity of novel andrographolide derivatives” (Medchemcomm, 2015).

Converted amounts (≈) assume the structure as drawn.

For one experiment, the system named is HeLa. The experiment is described as follows: Cytotoxicity against human HeLa cells by MTT assay. It counts as functional, cell-based. (In general: Tetrazolium assays rely on reduction of a dye to a coloured formazan, in cell work by metabolically active cells.)
Experiment [1] in a line: Cytotoxicity against rat IEC-6 cells by MTT assay. It counts as cell-based.
In a further experiment the test system is ACHN. The experiment is described as follows: Cytotoxicity against human ACHN cells by MTT assay. It counts as functional, cell-based.
The subject of a further experiment is B16. As to the kind of experiment: Cytotoxicity against mouse B16 cells by MTT assay. The format is functional, cell-based.
A further experiment concerns A549. As to the kind of experiment: Cytotoxicity against human A549 cells by MTT assay. It counts as functional, cell-based.

Broadly, the IC50 is the concentration that gives 50% inhibition. Read a high IC50 as a need for much substance. For the compound `C=C1CC[C@@H]2[C@]3(C)CO[C@@H](C)O[C@@H]3CC[C@@]2(C)[C@@H]1/C=C/C1=CCOC1=O`, the IC50 in the experiment with HeLa was 56.2 µg/mL (≈ 157 µM); in experiment [1] it was 94.3 µg/mL (≈ 263 µM); in the experiment on ACHN it was 125 µg/mL (≈ 349 µM); with B16 it was 62 µg/mL (≈ 173 µM); in the experiment with A549, 88.7 µg/mL (≈ 247 µM).

As for `C=C1CC[C@@H]2[C@]3(C)CO[C@@H](C)O[C@@H]3CC[C@@]2(C)[C@@H]1C/C=C1/C(=O)OC[C@H]1O`, the half-inhibitory concentration (IC50) amounted to 4.27 µg/mL (≈ 11.3 µM) in the experiment with HeLa; 6.34 µg/mL (≈ 16.8 µM) in experiment [1]; 2.47 µg/mL (≈ 6.56 µM) in the experiment with ACHN; 4.78 µg/mL (≈ 12.7 µM) in the experiment on B16; 2.43 µg/mL (≈ 6.45 µM) in the experiment on A549.

Consider `C=C1CC[C@@H]2[C@](C)(CO)[C@H](O)CC[C@@]2(C)[C@@H]1/C=C/C1=CCOC1=O`, for which the IC50 in the experiment on HeLa worked out at 149 µg/mL (≈ 448 µM); in experiment [1] it was 169 µg/mL (≈ 509 µM); in the experiment on ACHN it was 328 µg/mL (≈ 986 µM); in the experiment with B16, 25.2 µg/mL (≈ 75.7 µM); in the experiment with A549, 117 µg/mL (≈ 353 µM).

With `C=C1CC[C@@H]2[C@]3(C)CO[C@@H](c4ccccc4)O[C@@H]3CC[C@@]2(C)[C@@H]1C/C=C1/C(=O)OC[C@H]1O`, the IC50 with HeLa was 3.8 µg/mL (≈ 8.66 µM); in experiment [1], 19.2 µg/mL (≈ 43.8 µM); in the experiment on ACHN it was 4.78 µg/mL (≈ 10.9 µM); with B16, 9.54 µg/mL (≈ 21.8 µM); in the experiment on A549 it was 4.07 µg/mL (≈ 9.28 µM).

Consider `C[C@@H]1OC[C@@]2(C)[C@H]3CC[C@@]4(CO4)[C@@H](/C=C/C4=CCOC4=O)[C@]3(C)CC[C@H]2O1`, for which the IC50 with HeLa worked out at 7.78 µg/mL (≈ 20.8 µM); in experiment [1] it was 35.1 µg/mL (≈ 93.6 µM); in the experiment with ACHN, 57.3 µg/mL (≈ 153 µM); with B16 it was 44.1 µg/mL (≈ 118 µM); in the experiment on A549, 18.2 µg/mL (≈ 48.6 µM).

Regarding `C=C1CC[C@@H]2[C@]3(C)CO[C@@H](CCCCC)O[C@@H]3CC[C@@]2(C)[C@@H]1C/C=C1/C(=O)OC[C@H]1O`, the IC50 in the experiment on HeLa was 8.51 µg/mL (≈ 19.7 µM); in experiment [1], 22.4 µg/mL (≈ 51.7 µM); in the experiment on ACHN, 9.54 µg/mL (≈ 22.1 µM); with B16, 10 µg/mL (≈ 23.1 µM); with A549, 7.07 µg/mL (≈ 16.3 µM).

For the compound `C[C@@H]1OC[C@@]2(C)[C@H]3CC[C@@]4(CO4)[C@@H](C/C=C4/C(=O)OC[C@H]4O)[C@]3(C)CC[C@H]2O1`, the 50% inhibitory concentration (IC50) in the experiment with HeLa was determined as 6.97 µg/mL (≈ 17.8 µM); in experiment [1], 8.76 µg/mL (≈ 22.3 µM); with ACHN it was 4.49 µg/mL (≈ 11.4 µM); with B16, 6.34 µg/mL (≈ 16.2 µM); in the experiment on A549 it was 4.34 µg/mL (≈ 11.1 µM).

Regarding `C=C1CC[C@@H]2[C@]3(C)CO[C@@H](CC)O[C@@H]3CC[C@@]2(C)[C@@H]1C/C=C1/C(=O)OC[C@H]1O`, the IC50 stood at 8.91 µg/mL (≈ 22.8 µM) with HeLa; 14.2 µg/mL (≈ 36.4 µM) in experiment [1]; 14.7 µg/mL (≈ 37.6 µM) in the experiment with ACHN; 10.2 µg/mL (≈ 26.2 µM) in the experiment on B16; 8.12 µg/mL (≈ 20.8 µM) in the experiment on A549.

As for `CC(=O)O[C@@H]1COC(=O)/C1=C/C[C@@H]1[C@@]2(CC[C@@H]3[C@]4(C)CO[C@@H](C)O[C@@H]4CC[C@]31C)CO2`, the IC50 in the experiment on HeLa is 7.12 µg/mL (≈ 16.4 µM); in experiment [1] it was 14.5 µg/mL (≈ 33.4 µM); in the experiment on ACHN, 5.58 µg/mL (≈ 12.8 µM); with B16, 6.98 µg/mL (≈ 16.1 µM); with A549, 4.37 µg/mL (≈ 10.1 µM).

For `C=C1CC[C@@H]2[C@]3(C)CO[C@@H](CCC)O[C@@H]3CC[C@@]2(C)[C@@H]1C/C=C1/C(=O)OC[C@H]1O`, the IC50 in the experiment with HeLa was found to be 27 µg/mL (≈ 66.8 µM); in experiment [1], 14.1 µg/mL (≈ 35 µM); in the experiment on ACHN it was 32.9 µg/mL (≈ 81.4 µM); with B16, 44.4 µg/mL (≈ 110 µM); with A549, 23 µg/mL (≈ 56.8 µM).

For the compound `C=C1CC[C@@H]2[C@]3(C)CO[C@@H](CCCC)O[C@@H]3CC[C@@]2(C)[C@@H]1C/C=C1/C(=O)OC[C@H]1O`, the IC50 amounted to 14.1 µg/mL (≈ 33.6 µM) in the experiment with HeLa; 31.2 µg/mL (≈ 74.6 µM) in experiment [1]; 15.3 µg/mL (≈ 36.7 µM) in the experiment with ACHN; 21.1 µg/mL (≈ 50.4 µM) in the experiment on B16; 33.5 µg/mL (≈ 80.1 µM) in the experiment on A549.

Turning to `C=C1CC[C@@H]2[C@]3(C)CO[C@@H](C)O[C@@H]3CC[C@@]2(C)[C@@H]1C/C=C1/C(=O)OC[C@H]1OC(C)=O`, the IC50 in the experiment with HeLa came out at 4.43 µg/mL (≈ 10.6 µM); in experiment [1] it was 7.23 µg/mL (≈ 17.3 µM); with ACHN it was 8.54 µg/mL (≈ 20.4 µM); in the experiment with B16, 4.01 µg/mL (≈ 9.58 µM); with A549, 3.34 µg/mL (≈ 7.98 µM).

For the compound `C=C1CC[C@@H]2[C@]3(C)CO[C@@H](C)O[C@@H]3CC[C@@]2(C)[C@@H]1C/C=C1\C=COC1=O`, the IC50 in the experiment with HeLa was 48.6 µg/mL (≈ 135 µM); in experiment [1], 40 µg/mL (≈ 112 µM); in the experiment on ACHN, 60.6 µg/mL (≈ 169 µM); in the experiment with B16 it was 43 µg/mL (≈ 120 µM); in the experiment with A549, 46.9 µg/mL (≈ 131 µM).

With `C=C1CC[C@@H]2[C@](C)(CO)[C@H](O)CC[C@@]2(C)[C@@H]1C/C=C1/C(=O)OC[C@H]1O` [ANDROGRAPHOLIDE], the IC50 is 10.4 µg/mL (≈ 29.7 µM) with HeLa; 8.26 µg/mL (≈ 23.6 µM) in experiment [1]; 3.03 µg/mL (≈ 8.65 µM) in the experiment with ACHN; 7.54 µg/mL (≈ 21.5 µM) in the experiment on B16; 9.71 µg/mL (≈ 27.7 µM) with A549.

Regarding `COc1cccc2c1C(=O)c1c(O)c3c(c(O)c1C2=O)C[C@@](O)(C(=O)CO)C[C@@H]3O[C@H]1C[C@H](N)[C@H](O)[C@H](C)O1` [DOXORUBICIN], the IC50 with HeLa came out at 1.28 µg/mL (≈ 2.35 µM); in experiment [1] it was 2.6 µg/mL (≈ 4.78 µM); with ACHN, 2.08 µg/mL (≈ 3.83 µM); in the experiment with B16 it was 3.16 µg/mL (≈ 5.81 µM).
